{"source": "patent US8202902B2", "about": "“Bivalent SMAC mimetics and the uses thereof” (The Regents of the University of Michigan, priority 2006, dated 2012)", "key": {"[1]": {"target": "T1, human XIAP protein (residues 120-356) (Homo sapiens, UniProt P98170)", "T1 construct": "human XIAP protein (residues 120-356) (10 nM)", "T1 sequence (P98170 120-356)": "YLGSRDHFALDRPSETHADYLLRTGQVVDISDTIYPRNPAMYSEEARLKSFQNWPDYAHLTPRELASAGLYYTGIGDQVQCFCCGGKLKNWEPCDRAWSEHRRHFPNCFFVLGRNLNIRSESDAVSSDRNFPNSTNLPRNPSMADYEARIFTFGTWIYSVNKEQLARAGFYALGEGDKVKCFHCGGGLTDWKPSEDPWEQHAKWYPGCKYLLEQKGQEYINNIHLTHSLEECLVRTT", "experiment": "Fluorescence-polarization-based binding assay to XIAP protein (Smac2-F tracer)", "experimental": "The polarization values were measured after 2 hours incubation, using the Ultra plate reader. […] Curve fitting is performed using GraphPad Prism® software."}, "[2]": {"test_system": "XIAP stably transfected Jurkat leukemia cell line (XIAP-JK) and vector control cell line (VEC-JK)", "experiment": "XIAP-overexpressing Jurkat cells, Smac mimetics with TNFα", "assay_type": "cell-based", "description": "The effect of XIAP overexpression in cancer cells on TNFα-dependent apoptosis induction by Smac mimetics was investigated. Since stable transfection of XIAP in those sensitive cancer cell lines was unsuccessful, the previously well-characterized XIAP stably transfected Jurkat leukemia cell line (XIAP-JK) and its vector control cell line (VEC-JK) were employed (Wilkinson et al., Mol. Cell. Biol. 24:7003 (2004)). The VEC-JK cell line with low expression of XIAP was sensitive to SM-122 or SM-164 in combination with TNFα (FIG. 43)."}, "[3]": {"test_system": "MALME-3M melanoma cell line", "experiment": "Apoptosis assay (Annexin V/P.I.), MALME-3M", "assay_type": "cell-based", "settings": "1 nM for 12 h", "experimental": "Analysis of apoptosis was performed using an apoptosis detection kit (BioVision Research Products, Mountain View, Calif.) according to the manufacturer's protocol. Briefly, cells were treated with Smac mimetics for 12 hours, harvested and washed with ice-cold PBS. Cells were stained with Annexin V-FITC and Propidium iodide (P.I.) for 15 minutes at room temperature in the dark and immediately analyzed by FACS calibur flow cytometer (Becton Dickinson, Erembodegem, Belgium). Cells that were stained Annexin V (+) and P.I. (−) were considered early-stage apoptotic cells. Cells that were stained annexin V (+) and P.I. (+) were considered late-stage apoptotic cells and cells that were stained annexin V (−) and P.I. (+) were considered necrotic cells (FIG. 6).\n(§1) Treatment with SM-164 at 1 nM for 12 h induced 32%, 33%, and 37% of the MDA-MB-231, SK-OV-3 and MALME-3M cells to undergo apoptosis, respectively (FIGS. 12-14)."}, "[4]": {"test_system": "sensitive cancer cell lines (MDA-MB-231, MALME-3M, SK-OV-3)", "experiment": "XIAP knockdown by siRNA with exogenous TNFα, cell death", "assay_type": "cell-based", "experimental": "To investigate the role of XIAP in apoptosis induction by Smac mimetics, XIAP was knocked down in sensitive cancer cell lines. Because XIAP knockdown attenuated the production and secretion of TNFα (FIG. 34) (Gaither et al., Cancer Res. 67:11493 (2007)), exogenous TNFα was added in these XIAP knockdown experiments. […] For example, while SM-122 at 100 nM in combination with TNFα killed 25% of the MDA-MB-231 cells when control siRNA was used, the same combination killed 75% of the cells when XIAP was knocked down.\nThis is consistent with binding and functional data that indicates SM-164 binds to XIAP with a high affinity and is a potent antagonist of XIAP."}, "[5]": {"target": "cIAP-1 protein containing both BIR2 and BIR3 domains (Homo sapiens, UniProt Q13490)", "sequence (Q13490 174-352 limits assumed)": "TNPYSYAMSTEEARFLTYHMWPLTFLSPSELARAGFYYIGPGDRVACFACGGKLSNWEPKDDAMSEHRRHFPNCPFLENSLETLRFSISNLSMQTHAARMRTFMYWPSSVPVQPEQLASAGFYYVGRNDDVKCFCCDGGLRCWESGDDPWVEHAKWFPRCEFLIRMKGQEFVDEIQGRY", "experiment": "Fluorescence-polarization based binding assay, cIAP-1 BIR2-BIR3"}, "[6]": {"test_system": "MDA-MB-231 xenograft model", "experiment": "Inhibition of tumor growth in the MDA-MB-231 xenograft model", "assay_type": "in vivo, mice", "experimental": "SM-164 was evaluated for its ability to inhibit tumor growth. […] Treatment with SM-164 at 5 mg/kg reduces the tumor volume from 147±54 mm^3 at the beginning of the treatment (day 25) to 54±32 mm^3 at the end of the treatment (day 36), a reduction of 65%. The strong antitumor activity by SM-164 is long lasting and not transient."}, "MAMLE-3M cells": {"test_system": "MAMLE-3M cells", "experiment": "Trypan blue cell viability assay, MAMLE-3M", "assay_type": "cell-based", "settings": "100 nM, 2 days", "experimental": "(§2) 0.3×10^6 cells were seeded in 6 well plates and incubated at 37° C. in an atmosphere of 95% air and 5% CO2 without or with tested compound for 2 days. A 1:1 dilution of 0.4% Trypan blue (Invitrogen Corporation) was used to determine cell viability."}, "SK-OV-3": {"test_system": "SK-OV-3", "experiment": "Cell growth inhibition, WST assay, SK-OV-3", "assay_type": "cell-based", "settings": "Homo sapiens", "experimental": "(§3) Cells were seeded in 96-well flat bottom cell culture plates at a density of 3000 cells/well with a tested compound and incubated at 37° C. in an atmosphere of 95% air and 5% CO2 for 4 days. The rate of cell growth inhibition after treatment with different concentrations of the compound was determined using a WST-8 kit (2-(2-methoxy-4-nitrophenyl)-3-(4-nitrophenyl)-5-(2, 4 disulfophenyl)-2H-tetrazolium monosodium salt; Dojindo Molecular Technologies, Inc., Gaithersburg, Md.). WST-8 was added at a final concentration of 10% to each well, and then the plates were incubated at 37° C. for 2-3 hrs. The absorbance of the samples was measured at 450 nm using a ULTRA Tecan Reader (Molecular Device)."}, "OVCAR-4 cells": {"test_system": "OVCAR-4 cells", "experiment": "Trypan blue cell viability assay, OVCAR-4", "assay_type": "cell-based", "settings": "100 nM, 2 days", "experimental": "as §2"}, "[7]": {"test_system": "MDA-MB-231, MALME-3M and SK-OV-3 cell lines", "experiment": "Cell death induction with TNFα or TRAIL neutralizing antibody", "assay_type": "cell-based"}, "[8]": {"test_system": "MDA-MB-231 human breast cancer cell line", "experiment": "Cell growth inhibition, WST-8 assay, MDA-MB-231", "assay_type": "cell-based", "experimental": "as §3, with “The” for “Cells were seeded in 96-well flat bottom cell culture plates at a density of 3000 cells/well with a tested compound and incubated at 37° C. in an atmosphere of 95% air and 5% CO2 for 4 days. The”"}, "MDA-MB-231 cells": {"test_system": "MDA-MB-231 cells", "experiment": "Trypan blue cell viability assay, MDA-MB-231", "assay_type": "cell-based, human", "settings": "100 nM, 2 days", "experimental": "as §2"}, "[9]": {"test_system": "MDA-MB-231, SK-OV-3 and MALME-3M cell lines", "experiment": "Western blot analysis of caspase processing and PARP cleavage", "assay_type": "cell-based", "experimental": "as §1"}, "[10]": {"test_system": "MAMEL-3M melanoma cell line", "experiment": "Cell growth inhibition, WST-8 assay, MAMEL-3M", "assay_type": "cell-based", "settings": "96 h, 4 days", "experimental": "as §3"}, "[11]": {"target": "T2, Recombinant XIAP containing linker-BIR2-BIR3 (residues 120-356) (Homo sapiens, UniProt P98170)", "T2 construct": "Recombinant XIAP containing linker-BIR2-BIR3 (residues 120-356)", "T2 sequence (P98170 120-356)": "as the sequence (P98170 120-356) above", "experiment": "Cell-free functional assay: antagonism of XIAP inhibition of caspase-3/-7", "assay_type": "biochemical"}}, "note": "Like-named read-outs stand apart in the source and are kept apart here.", "data": [{"smiles": "CN[C@@H](C)C(=O)N[C@H]1CCCC[C@H]2CC[C@@H](C(=O)N[C@@H](c3ccccc3)c3cn(CCCCc4ccc(CCCCn5cc([C@@H](NC(=O)[C@@H]6CC[C@@H]7CCCC[C@H](NC(=O)[C@H](C)NC)C(=O)N76)c6ccccc6)nn5)cc4)nn3)N2C1=O", "note": "[SH-164]", "values": [{"measurement": "binding affinity better than the monovalent Smac mimetic SH-122", "setting": "[1]", "value": "more than 500 fold"}, {"measurement": "more potent than the natural Smac peptide AVPI", "setting": "[1]", "value": "> 5000", "unit": "times"}, {"measurement": "sensitivity in combination with TNFα", "setting": "[2]; VEC-JK cell line", "value": "sensitive"}, {"measurement": "sensitivity in combination with TNFα", "setting": "[2]; XIAP-JK cell line", "value": "much less effective than in the VEC-JK cell line"}, {"measurement": "cells undergoing apoptosis", "setting": "[3]", "value": 37, "unit": "%"}, {"measurement": "cell death induction", "setting": "[4]; 3 and 10 nM, with or without TNFα", "value": "effectively induced cell death"}, {"measurement": "sensitization by knockdown of XIAP", "setting": "[4]; presence of exogenous TNFα", "value": "only modestly sensitized"}, {"measurement": "Ki", "setting": "[5]", "value": 0.31, "unit": "nM"}, {"measurement": "more potent than SM-122 to cIAP-1", "setting": "[5]", "value": 9, "unit": "times"}, {"measurement": "tumor growth during the treatment", "setting": "[6]; 1 mg/kg", "value": "completely inhibits tumor growth"}, {"measurement": "tumor volume at the beginning of the treatment", "setting": "[6]; 5 mg/kg, day 25", "value": "147±54", "unit": "mm^3"}, {"measurement": "reduction of tumor volume", "setting": "[6]; 5 mg/kg, day 25 to day 36", "value": 65, "unit": "%"}, {"measurement": "tumor volume at the end of the treatment", "setting": "[6]; 5 mg/kg, day 36", "value": "54±32", "unit": "mm^3"}, {"measurement": "efficacy compared with TXT", "setting": "[6]; 5 mg/kg, end of treatment (p<0.01) or control tumor 750 mm^3 (p<0.02)", "value": "statistically more effective than TXT"}, {"measurement": "weight loss or other sign of toxicity", "setting": "[6]; 1 or 5 mg/kg", "value": "no significant weight loss or other sign of toxicity"}, {"measurement": "cell death", "setting": "MAMLE-3M cells", "value": "at least 70%"}, {"measurement": "IC50", "setting": "SK-OV-3", "value": "< 10", "unit": "nM"}, {"measurement": "cell death", "setting": "OVCAR-4 cells", "value": "at least 70%"}, {"measurement": "cell death induction in presence of neutralizing antibodies", "setting": "[7]", "value": "effectively blocked by a TNFα, but not by a TRAIL, neutralizing antibody"}, {"measurement": "IC50", "setting": "[8]; MDA-MB-231, 96 h, 4 days, WST-8, read-out: IC50 cell growth inhibition", "value": 1.4, "unit": "nM"}, {"measurement": "IC50", "setting": "[8]; MDA-MB-231, read-out: IC50 values (nM) In WST-assay (MDA-MB-231)", "value": "< 10", "unit": "nM"}, {"measurement": "cell death", "setting": "MDA-MB-231 cells", "value": "at least 70%"}, {"measurement": "induction of cell death, caspase processing and PARP cleavage, comparison", "setting": "[9]; SM-164 at 1 nM", "value": "as effective as SM-122 at 1,000 nM"}, {"measurement": "levels of pro-caspase-3, -8 and -9 (cleaved PARP increased)", "setting": "[9]; concentration as low as 1 nM", "value": "markedly decreased"}, {"measurement": "IC50", "setting": "[10]", "value": 1.4, "unit": "nM"}, {"measurement": "more potent than SM-122 in antagonizing XIAP and promoting caspase activity", "setting": "[11]", "value": 60, "unit": "times"}]}]}
